The test system of assay [1] is EGFR wild-type cell line A431. Kind of assay: Cell proliferation inhibition experiment (CellTiter-Glo), A431. It counts as cell-based. The following applies: A431 cells, Cell Titer-Glo, read-out: A431 EGFR WT IC50. A digest of the protocol:
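Luminescent CellTiter-Glo readout, 30 min at room temperature, after 72 h compound exposure at 37° C., 5% CO2 with 0.1% DMSO final. EGFR wild-type A431 cells were seeded at 800 per well and grown 24 h before dosing. IC50 derived from the dose-response.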
On the technique in general: In ATP-based viability assays light output follows the ATP content of the culture.

For another assay, the target named is T1, wild-type EGFR (Homo sapiens, UniProt P00533).
T1 construct: purchased Signalchem
In words: Enzymology experiment in vitro (HTRF/FRET kinase activity), wild-type EGFR. As to conditions: HTRF KinEASE-TK, read-out: EGFR (WT) IC50. It counts as biochemical. A digest of the protocol:
(§1)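 Kinase reaction run 40 min at room temperature with peptide and ATP after a 10 min compound–enzyme preincubation. Phosphorylation read as HTRF signal after 1 h with Eu³⁺ antibody, XL665-streptavidin and EDTA (Cisbio KinEASE-TK).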

Assay [2] has as its target T2, L858R/T790M/C797S triple mutant EGFR (Homo sapiens, UniProt P00533, C797S/L858R/T790M).
T2 construct: purchased Signalchem
Kind of assay: Enzymology experiment in vitro (HTRF/FRET kinase activity), L858R/T790M/C797S triple mutant EGFR. The assay is classed as biochemical. The following applies: HTRF KinEASE-TK, read-out: EGFR (L858R/T790M/C797S) IC50. A digest of the protocol:
as §1

Assay [3] deals with Ba/F3 De119/T790M/C797S EGFR triple mutant cell line (Homo sapiens, UniProt P00533, T790M/C797S, cells depend on it, form not given). Kind of assay: Cell proliferation inhibition experiment (CellTiter-Glo), Ba/F3 De119/T790M/C797S. The following applies: Ba/F3 Del19/T790M/C797S EGFR triple mutant cells, 72 hours, Cell Titer-Glo; read-out: Ba/F3 (Del19/T790M/C797S) IC50. The assay is classed as cell-based.

In assay [4] the target is Ba/F3 L858R/T790M/C797S EGFR triple mutant cell line (Homo sapiens, UniProt P00533, T790M/C797S/L858R, cells depend on it). In words: Cell proliferation inhibition experiment (CellTiter-Glo), Ba/F3 L858R/T790M/C797S. It counts as cell-based. As to conditions: 72 hours, Cell Titer-Glo, read-out: Ba/F3 (L858R/T790M/C797S) IC50.

Structures can show the parent of a compound that is named as a salt. Where two headings read alike, the source gives them in different places.

Sequence of Ba/F3 De119/T790M/C797S EGFR triple mutant cell line (P00533 with tags, fused parts or gaps DEL746-750/T790M/C797S, form open): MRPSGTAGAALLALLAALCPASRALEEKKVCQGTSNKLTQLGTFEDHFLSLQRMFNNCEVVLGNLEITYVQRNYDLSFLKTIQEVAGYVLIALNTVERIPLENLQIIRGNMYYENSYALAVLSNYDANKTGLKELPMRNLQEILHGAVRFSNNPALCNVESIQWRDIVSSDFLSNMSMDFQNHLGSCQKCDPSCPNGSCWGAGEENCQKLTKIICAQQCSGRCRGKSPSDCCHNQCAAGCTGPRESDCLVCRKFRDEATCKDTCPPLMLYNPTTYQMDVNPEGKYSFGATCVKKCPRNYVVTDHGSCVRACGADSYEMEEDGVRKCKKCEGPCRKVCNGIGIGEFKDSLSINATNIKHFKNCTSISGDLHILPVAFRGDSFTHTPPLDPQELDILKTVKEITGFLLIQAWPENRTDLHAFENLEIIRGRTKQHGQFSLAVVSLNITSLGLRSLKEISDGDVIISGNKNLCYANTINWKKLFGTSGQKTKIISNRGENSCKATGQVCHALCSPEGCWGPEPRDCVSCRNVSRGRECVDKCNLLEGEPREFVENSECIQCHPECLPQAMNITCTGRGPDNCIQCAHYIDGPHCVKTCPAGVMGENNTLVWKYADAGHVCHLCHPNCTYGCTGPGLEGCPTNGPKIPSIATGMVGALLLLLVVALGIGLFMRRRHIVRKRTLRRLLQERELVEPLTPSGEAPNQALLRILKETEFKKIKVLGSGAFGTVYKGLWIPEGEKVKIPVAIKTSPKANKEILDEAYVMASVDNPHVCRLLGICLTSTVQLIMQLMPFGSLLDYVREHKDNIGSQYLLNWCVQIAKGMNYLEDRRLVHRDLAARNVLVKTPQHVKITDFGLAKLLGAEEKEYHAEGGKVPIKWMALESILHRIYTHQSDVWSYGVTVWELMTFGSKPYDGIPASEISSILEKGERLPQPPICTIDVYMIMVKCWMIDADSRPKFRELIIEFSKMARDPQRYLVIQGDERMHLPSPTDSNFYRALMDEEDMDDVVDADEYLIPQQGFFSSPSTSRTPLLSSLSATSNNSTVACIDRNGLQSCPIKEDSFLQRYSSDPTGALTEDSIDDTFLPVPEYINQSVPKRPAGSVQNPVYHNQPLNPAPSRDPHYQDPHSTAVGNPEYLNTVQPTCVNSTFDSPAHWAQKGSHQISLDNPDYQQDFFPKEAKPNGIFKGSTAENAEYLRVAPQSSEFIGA
Sequence of Ba/F3 L858R/T790M/C797S EGFR triple mutant cell line (P00533 whole entry T790M/C797S/L858R): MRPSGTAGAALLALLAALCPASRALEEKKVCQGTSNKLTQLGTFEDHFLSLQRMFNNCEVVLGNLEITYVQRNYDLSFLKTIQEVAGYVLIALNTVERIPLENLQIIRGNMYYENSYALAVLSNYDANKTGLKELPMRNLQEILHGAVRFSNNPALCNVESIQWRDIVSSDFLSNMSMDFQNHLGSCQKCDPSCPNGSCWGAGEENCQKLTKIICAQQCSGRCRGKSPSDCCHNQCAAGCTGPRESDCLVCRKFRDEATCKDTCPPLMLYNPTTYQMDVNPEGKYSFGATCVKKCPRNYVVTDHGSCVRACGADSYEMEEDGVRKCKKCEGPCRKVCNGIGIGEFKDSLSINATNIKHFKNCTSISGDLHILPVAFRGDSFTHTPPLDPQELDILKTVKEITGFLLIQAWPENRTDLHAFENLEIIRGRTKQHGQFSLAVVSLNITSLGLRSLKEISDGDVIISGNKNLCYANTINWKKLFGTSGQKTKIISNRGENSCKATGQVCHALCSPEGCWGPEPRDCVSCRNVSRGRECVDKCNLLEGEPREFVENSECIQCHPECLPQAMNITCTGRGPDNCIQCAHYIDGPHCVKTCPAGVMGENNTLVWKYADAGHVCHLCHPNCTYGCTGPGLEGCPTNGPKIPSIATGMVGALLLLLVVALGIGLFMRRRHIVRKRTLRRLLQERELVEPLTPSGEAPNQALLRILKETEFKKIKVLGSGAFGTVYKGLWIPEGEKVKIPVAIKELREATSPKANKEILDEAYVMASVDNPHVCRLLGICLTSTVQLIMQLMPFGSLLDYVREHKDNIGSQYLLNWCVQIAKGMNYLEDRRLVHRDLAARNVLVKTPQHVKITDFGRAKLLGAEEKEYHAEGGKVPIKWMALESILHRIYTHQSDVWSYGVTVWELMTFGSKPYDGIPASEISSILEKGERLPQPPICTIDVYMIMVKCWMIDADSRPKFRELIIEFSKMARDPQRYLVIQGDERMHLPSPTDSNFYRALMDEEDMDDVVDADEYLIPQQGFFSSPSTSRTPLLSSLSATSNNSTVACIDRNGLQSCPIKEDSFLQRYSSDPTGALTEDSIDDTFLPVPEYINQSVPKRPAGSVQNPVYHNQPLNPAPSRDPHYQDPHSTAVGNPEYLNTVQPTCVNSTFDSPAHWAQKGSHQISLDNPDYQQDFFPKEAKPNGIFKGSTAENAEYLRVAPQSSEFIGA
T2 sequence (P00533 25-1210 T790M/C797S/L858R): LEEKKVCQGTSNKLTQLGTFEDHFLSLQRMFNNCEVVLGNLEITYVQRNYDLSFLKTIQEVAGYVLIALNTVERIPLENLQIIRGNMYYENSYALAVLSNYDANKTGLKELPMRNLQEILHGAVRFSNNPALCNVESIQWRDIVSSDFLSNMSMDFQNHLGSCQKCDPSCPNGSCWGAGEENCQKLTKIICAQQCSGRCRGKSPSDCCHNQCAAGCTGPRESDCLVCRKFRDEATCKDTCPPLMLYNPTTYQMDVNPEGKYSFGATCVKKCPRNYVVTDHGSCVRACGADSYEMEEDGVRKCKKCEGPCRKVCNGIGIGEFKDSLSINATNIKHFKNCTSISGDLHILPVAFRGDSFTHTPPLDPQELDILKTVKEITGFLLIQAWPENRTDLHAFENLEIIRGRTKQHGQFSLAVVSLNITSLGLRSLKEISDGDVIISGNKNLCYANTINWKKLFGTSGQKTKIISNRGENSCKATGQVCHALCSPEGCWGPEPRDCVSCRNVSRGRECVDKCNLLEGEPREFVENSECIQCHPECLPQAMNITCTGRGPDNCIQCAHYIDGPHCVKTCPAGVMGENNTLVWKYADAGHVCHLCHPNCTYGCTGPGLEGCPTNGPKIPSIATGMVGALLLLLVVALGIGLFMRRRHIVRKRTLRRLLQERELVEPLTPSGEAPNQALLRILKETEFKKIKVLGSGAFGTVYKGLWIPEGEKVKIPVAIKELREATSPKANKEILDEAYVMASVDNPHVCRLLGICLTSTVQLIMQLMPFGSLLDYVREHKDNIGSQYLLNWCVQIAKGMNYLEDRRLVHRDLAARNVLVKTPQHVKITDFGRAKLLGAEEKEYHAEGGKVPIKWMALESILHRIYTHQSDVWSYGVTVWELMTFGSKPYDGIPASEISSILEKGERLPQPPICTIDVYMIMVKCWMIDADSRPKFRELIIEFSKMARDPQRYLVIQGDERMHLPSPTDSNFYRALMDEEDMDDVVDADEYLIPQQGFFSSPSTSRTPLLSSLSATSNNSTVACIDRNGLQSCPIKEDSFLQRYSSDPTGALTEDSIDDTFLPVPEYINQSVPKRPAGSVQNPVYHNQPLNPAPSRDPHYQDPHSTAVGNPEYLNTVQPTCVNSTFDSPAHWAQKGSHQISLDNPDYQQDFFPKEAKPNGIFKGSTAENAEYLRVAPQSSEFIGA
T1 sequence (P00533 25-1210): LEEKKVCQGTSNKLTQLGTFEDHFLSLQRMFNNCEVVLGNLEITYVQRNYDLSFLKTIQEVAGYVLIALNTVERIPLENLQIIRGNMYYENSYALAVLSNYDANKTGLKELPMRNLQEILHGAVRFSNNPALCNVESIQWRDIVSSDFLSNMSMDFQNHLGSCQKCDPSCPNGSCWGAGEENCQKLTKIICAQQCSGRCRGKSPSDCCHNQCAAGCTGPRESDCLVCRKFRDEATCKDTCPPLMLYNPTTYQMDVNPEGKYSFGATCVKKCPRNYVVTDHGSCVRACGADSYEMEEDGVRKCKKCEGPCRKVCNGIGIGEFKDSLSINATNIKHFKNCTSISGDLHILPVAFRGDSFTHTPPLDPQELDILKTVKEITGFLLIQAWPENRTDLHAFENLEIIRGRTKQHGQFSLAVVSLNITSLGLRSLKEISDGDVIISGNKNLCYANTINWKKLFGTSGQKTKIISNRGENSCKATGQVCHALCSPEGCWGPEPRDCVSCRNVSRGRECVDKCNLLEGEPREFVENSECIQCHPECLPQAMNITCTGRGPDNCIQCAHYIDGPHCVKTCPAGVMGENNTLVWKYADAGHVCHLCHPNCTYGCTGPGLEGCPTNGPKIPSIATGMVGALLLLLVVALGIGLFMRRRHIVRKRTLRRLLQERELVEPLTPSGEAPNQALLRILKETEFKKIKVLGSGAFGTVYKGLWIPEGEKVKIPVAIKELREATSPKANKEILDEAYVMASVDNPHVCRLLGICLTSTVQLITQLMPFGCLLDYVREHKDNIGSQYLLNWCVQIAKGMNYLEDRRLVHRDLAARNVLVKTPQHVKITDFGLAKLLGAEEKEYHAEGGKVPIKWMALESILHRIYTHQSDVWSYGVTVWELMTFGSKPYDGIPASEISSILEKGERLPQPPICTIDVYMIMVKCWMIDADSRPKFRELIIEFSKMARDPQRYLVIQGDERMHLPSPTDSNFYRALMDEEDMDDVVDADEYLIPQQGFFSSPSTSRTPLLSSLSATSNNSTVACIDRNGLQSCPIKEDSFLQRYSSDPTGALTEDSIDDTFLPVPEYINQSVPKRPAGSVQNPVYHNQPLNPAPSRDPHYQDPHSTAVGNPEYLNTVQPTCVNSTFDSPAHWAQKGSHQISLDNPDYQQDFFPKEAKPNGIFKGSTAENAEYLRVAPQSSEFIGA

With `COc1cc(N2CCC(OC(C)C)CC2)c(-c2cnn(C)c2)cc1Nc1ncc(Br)c(Nc2ccc3nccnc3c2P(C)(C)=O)n1` [compound 151], the IC50 is 318 nM in assay [1] (Homo sapiens, A-431, 72 h); 38.2 nM on wild-type EGFR; 2.2 nM in assay [2]. The GI50 in assay [3] amounted to 1.84 nM; in assay [4], 7.47 nM.

Regarding `COc1cc(S(=O)(=O)N(C)C)c(-c2cnn(C)c2)cc1Nc1ncc(Br)c(Nc2ccc3nccnc3c2P(C)(C)=O)n1` [Compound 35, 4-((5-bromo-4-((5-(dimethylphosphoryl)quinoxalin-6-yl)amino)pyrimidin-2-yl)amino)-5-methoxy-N,N-dimethyl-2-(1-methyl-1H-pyrazol-4-yl)benzenesulfonamide], the IC50 in assay [1] (Homo sapiens, A-431, 72 h) amounted to 752 nM; on wild-type EGFR it was 384 nM; in assay [2], 11.9 nM. For the same compound, the GI50 came out at 93.2 nM in assay [3] and 327 nM in assay [4].

As to `COc1cc(N2CCC(N3CCOCC3)C(F)C2)c(-c2cnn(C)c2)cc1Nc1ncc(Br)c(Nc2ccc3nccnc3c2P(C)(C)=O)n1` (centres unmarked) [compound 214], the IC50 in assay [1] (Homo sapiens, A-431, 72 h) worked out at 139 nM; at wild-type EGFR it was 1.86 nM; in assay [2], 0.36 nM. The GI50 in assay [3] was 1.47 nM; in assay [4], 4.87 nM.

`COc1cc(N2CCC3(CC2)CN(C)C3)c(-c2cnn(C)c2)cc1Nc1ncc(Br)c(Nc2ccc3nccnc3c2P(C)(C)=O)n1` [Compound 16, (6-((5-bromo-2-((2-methoxy-5-(1-methyl-1H-pyrazol-4-yl)-4-(2-methyl-2,7-diazaspiro[3.5]nonan-7-yl)phenyl)amino)pyrimidin-4-yl)amino)quinoxalin-5-yl)dimethylphosphine oxide formate]: the IC50 came to 51.3 nM in assay [1] (Homo sapiens, A-431, 72 hours); 0.51 nM at wild-type EGFR; 0.05 nM in assay [2]. In addition, the GI50 was 13.2 nM in assay [3] and 23.5 nM in assay [4].

In the case of `CCOc1nc(N2CCOCC2)c(-c2cnn(C)c2)cc1Nc1ncc(Br)c(Nc2ccc3nccnc3c2P(C)(C)=O)n1` [compound 36], the IC50 in assay [1] (Homo sapiens, A-431, 72 h) was 320 nM; at wild-type EGFR, 21.9 nM; in assay [2], 0.54 nM. Besides, the GI50 turned out to be 2.63 nM in assay [3] and 17.7 nM in assay [4].

Consider `COc1cc(N2CCN(CC3CC3)CC2)c(-c2cnn(C)c2)cc1Nc1ncc(Br)c(Nc2ccc3nccnc3c2P(C)(C)=O)n1` [compound 235], for which the figures for the IC50 (in assay [1] (72 hours); at wild-type EGFR; in assay [2]) were 89 nM, 10.5 nM and 0.27 nM, respectively. Besides, the GI50 in assay [3] is 8.53 nM; in assay [4], 24.8 nM.

As for `COc1cc(N2CCC(N3CC(C)OC(C)C3)CC2)c(-c2cnn(C)c2)cc1Nc1ncc(Br)c(Nc2ccc3nccnc3c2P(C)(C)=O)n1` (racemic) [compound 174], the IC50 was determined as 307 nM in assay [1] (Homo sapiens, A-431, 72 h); 2.39 nM at wild-type EGFR; 0.6 nM in assay [2]. For the same compound, the GI50 in assay [3] came out at 4.63 nM; in assay [4], 7.85 nM.

Take `COc1cc(N2CCN3CCCCC3C2)c(-c2cnn(C)c2)cc1Nc1ncc(Br)c(Nc2ccc3nccnc3c2P(C)(C)=O)n1` (centres unmarked) [compound 131]: the IC50 in assay [1] (Homo sapiens, A-431, 72 h) amounted to 67.8 nM; at wild-type EGFR it was 2.57 nM; in assay [2] it was 0.12 nM. For the same compound, the GI50 in assay [3] turned out to be 0.6 nM; in assay [4] it was 7.17 nM.

In the case of `COc1cc(N(C)C)c(-c2cnn(C)c2)cc1Nc1ncc(Br)c(Nc2ccc3nccnc3c2P(C)(C)=O)n1` [compound 32], the IC50 stood at 208 nM in assay [1] (Homo sapiens, A-431, 72 h); 3.07 nM on wild-type EGFR; 0.22 nM in assay [2]. In addition, the GI50 in assay [3] came to 0.98 nM; in assay [4], 5.45 nM.

Turning to `COc1ccc(-n2cccn2)cc1Nc1ncc(Br)c(Nc2ccc3nccnc3c2P(C)(C)=O)n1` [compound 20], the IC50 in assay [1] (Homo sapiens, A-431, 72 h) stood at 1590 nM; at wild-type EGFR it was 179 nM; in assay [2] it was 9.21 nM. Also, the GI50 was 277 nM in assay [3] and 629 nM in assay [4].

(Values after patent US20230219986A1, “NOVEL AMINOPYRIMIDINE EGFR INHIBITOR” (QILU PHARMACEUTICAL CO., LTD., priority 2020, published 2023).)
